Source: PubChem BioAssay AID330 (DTP/NCI, 2004)
“And” between values parts separate entries of the source, which are not always exact repeats. Equal values may be shown once. Inconclusive results and toxic doses are left out. How the source made its calls: active means survival T/C of 150% or more; inactive means T/C below 125% in these data.

Test system: P388 leukemia ip, CD2F1 mice, survival T/C
Experiment: NCI In Vivo Anticancer Drug Screen. Data for tumor model P388 Leukemia (intraperitoneal) in CD2F1 (CDF1) mice
Conditions: endpoint: median survival time, higher = longer survival
Method in brief: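 Mice carrying the transplanted tumor received test compound or vehicle. Survival was recorded in each group, and the value is the treated-group measurement divided by that of the vehicle-treated control group.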

[1] = dose: 60.0 mg/kg/injection, schedule: Q01DX005 (ip), vehicle: Klucel (hydroxypropylcellulose) (HPC)
[2] = dose: 25.0 mg/kg/injection, schedule: Q01DX009 (ip), vehicle: saline with Tween-80
[3] = dose: 50.0 mg/kg/injection, schedule: Q01DX009 (ip), vehicle: saline with Tween-80
[4] = dose: 50.0 mg/kg/injection, schedule: Q01DX005 (ip), vehicle: saline with Tween-80
[5] = dose: 100.0 mg/kg/injection, schedule: Q01DX005 (ip), vehicle: saline with Tween-80
[6] = dose: 200.0 mg/kg/injection, schedule: Q01DX005 (ip), vehicle: saline with Tween-80
[7] = dose: 60.0 mg/kg/injection, schedule: Q01DX005 (ip), vehicle: saline with Tween-80
[8] = dose: 120.0 mg/kg/injection, schedule: Q01DX005 (ip), vehicle: saline with Tween-80
[9] = dose: 60.0 mg/kg/injection, schedule: Q01DX005 (ip), vehicle: saline
[10] = dose: 120.0 mg/kg/injection, schedule: Q01DX005 (ip), vehicle: saline
[11] = dose: 240.0 mg/kg/injection, schedule: Q01DX005 (ip), vehicle: saline
[12] = dose: 12.5 mg/kg/injection, schedule: Q01DX005 (ip), vehicle: saline with Tween-80
[13] = dose: 25.0 mg/kg/injection, schedule: Q01DX005 (ip), vehicle: saline with Tween-80

Measured: T/C

N#CC(C#N)=C(C#N)Nc1ccc(F)cc1
inactive: dose: 30.0 mg/kg/injection, schedule: Q01DX005 (ip), vehicle: Klucel (hydroxypropylcellulose) (HPC) 91 % of control | [1] 90 % of control

C#CCOC(=O)c1ccc(C(=O)OCC#C)cc1
inactive: dose: 100.0 mg/kg/injection, schedule: Q04DX003 (ip), vehicle: saline with Tween-80 100 % of control | dose: 200.0 mg/kg/injection, schedule: Q04DX003 (ip), vehicle: saline with Tween-80 90 % of control

O=C(N[C@@H](CO)[C@H]1CC(Br)=NO1)C(Cl)(Cl)Cl
inactive: dose: 12.5 mg/kg/injection, schedule: Q01DX005 (ip), vehicle: distilled water + Tween-80 100 % of control | dose: 25.0 mg/kg/injection, schedule: Q01DX005 (ip), vehicle: distilled water + Tween-80 102 % of control | dose: 50.0 mg/kg/injection, schedule: Q01DX005 (ip), vehicle: distilled water + Tween-80 105 % of control | dose: 100.0 mg/kg/injection, schedule: Q01DX005 (ip), vehicle: distilled water + Tween-80 107 % of control

OC(CC(O)(C(F)(F)F)C(F)(F)F)CC(O)(C(F)(F)F)C(F)(F)F
inactive: dose: 6.25 mg/kg/injection, schedule: Q04DX003 (ip), vehicle: saline with Tween-80 109 % of control | dose: 12.5 mg/kg/injection, schedule: Q04DX003 (ip), vehicle: saline with Tween-80 109 % of control | dose: 25.0 mg/kg/injection, schedule: Q04DX003 (ip), vehicle: saline with Tween-80 95 % of control

NCCC(=O)OCN1C(=O)C2C3C=CC(C2C1=O)C1C2C(=O)N(COC(=O)CCN)C(=O)C2C31 (centres undefined)
inactive: dose: 12.5 mg/kg/injection, schedule: Q01DX009 (ip), vehicle: water 88 % of control | dose: 25.0 mg/kg/injection, schedule: Q01DX009 (ip), vehicle: water 102 % of control | dose: 50.0 mg/kg/injection, schedule: Q01DX009 (ip), vehicle: water 99 % of control | dose: 100.0 mg/kg/injection, schedule: Q01DX009 (ip), vehicle: water 100 % of control | dose: 200.0 mg/kg/injection, schedule: Q01DX009 (ip), vehicle: water 118 % of control

O=c1[nH]nc(-c2ccc(Cl)cc2)c2cc(Cl)c(Cl)cc12
inactive: dose: 3.12 mg/kg/injection, schedule: Q04DX002 (ip), vehicle: distilled water + Tween-80 90 % of control | dose: 6.25 mg/kg/injection, schedule: Q04DX002 (ip), vehicle: distilled water + Tween-80 96 % of control | dose: 12.5 mg/kg/injection, schedule: Q04DX002 (ip), vehicle: distilled water + Tween-80 93 % of control | dose: 25.0 mg/kg/injection, schedule: Q04DX002 (ip), vehicle: distilled water + Tween-80 93 % of control | dose: 50.0 mg/kg/injection, schedule: Q04DX002 (ip), vehicle: distilled water + Tween-80 90 % of control | dose: 100.0 mg/kg/injection, schedule: Q04DX002 (ip), vehicle: distilled water + Tween-80 95 % of control | dose: 200.0 mg/kg/injection, schedule: Q04DX002 (ip), vehicle: distilled water + Tween-80 102 % of control

CCCCNC(=S)NC(=O)c1ccccc1
inactive: [2] 95 % of control | [3] 94 % of control

C/C=C/c1ccc(OC(C)C(=O)c2ccc(OC)c(OC)c2)c(OC)c1 (centres undefined)
inactive: dose: 10.0 mg/kg/injection, schedule: Q01DX005 (ip), vehicle: Klucel (hydroxypropylcellulose) (HPC) 97 % of control | dose: 20.0 mg/kg/injection, schedule: Q01DX005 (ip), vehicle: Klucel (hydroxypropylcellulose) (HPC) 100 % of control | dose: 40.0 mg/kg/injection, schedule: Q01DX005 (ip), vehicle: Klucel (hydroxypropylcellulose) (HPC) 99 % of control

CCN(CC)C1CS(=O)(=O)OC(c2ccccc2)=C1C (centres undefined)
inactive: [4] 100 % of control | [5] 102 % of control | [6] 100 % of control

COc1ccccc1[N+]([O-])=NC#N
inactive: dose: 6.25 mg/kg/injection, schedule: Q04DX003 (ip), vehicle: Klucel (hydroxypropylcellulose) (HPC) 107 % of control | dose: 12.5 mg/kg/injection, schedule: Q04DX003 (ip), vehicle: Klucel (hydroxypropylcellulose) (HPC) 111 % of control | dose: 25.0 mg/kg/injection, schedule: Q04DX003 (ip), vehicle: Klucel (hydroxypropylcellulose) (HPC) 99 % of control

COC(=O)C1(C(C)C)N=C(c2ccccc2)OO1 (centres undefined)
inactive: [2] 91 % of control | [3] 100 % of control | dose: 100.0 mg/kg/injection, schedule: Q01DX009 (ip), vehicle: saline with Tween-80 104 % of control

O=NNc1ccc(Sc2ccc3ccccc3c2)cn1
inactive: dose: 3.12 mg/kg/injection, schedule: Q01DX009 (ip), vehicle: saline 114 % of control and 122 % of control | dose: 6.25 mg/kg/injection, schedule: Q01DX009 (ip), vehicle: saline 120 % of control | dose: 12.5 mg/kg/injection, schedule: Q01DX009 (ip), vehicle: saline 114 % of control

BrC1C2CCC3OC3C12 (centres undefined)
inactive: [7] 104 % of control | [8] 103 % of control

CN1CC2(CO)C(c3ccccn3)N(C)C(c3ccccn3)C(CO)(C1)C2O (centres undefined)
inactive: [7] 107 % of control | [8] 104 % of control

CC(=O)c1nn(-c2ccccc2)c(=O)cc1C
inactive: [4] 100 % of control | [5] 98 % of control | [6] 100 % of control

CS(=O)CC1=NC(=N)N=C1CS(C)=O (centres undefined)
inactive: [9] 100 % of control | [10] 102 % of control | [11] 100 % of control

N=C(N)c1ccc(N=Nc2ccc(N)cc2N)cc1
inactive: [1] 120 % of control | dose: 120.0 mg/kg/injection, schedule: Q01DX005 (ip), vehicle: Klucel (hydroxypropylcellulose) (HPC) 124 % of control

CC(=O)O[C@@]1(C)OC(=O)[C@@]2(c3ccccc3)N(C(C)=O)C(C)=C(C#N)[C@@]12C#N
inactive: [4] 100 % of control | [5] 106 % of control | [6] 97 % of control

O=C(O)CBr
inactive: dose: 25.0 mg/kg/injection, schedule: Q01DX005 (ip), vehicle: other 110 % of control

CCCCCCCCCCCCN1CCS(=O)(=O)CC1
inactive: dose: 25.0 mg/kg/injection, schedule: Q01DX009 (ip), vehicle: Klucel (hydroxypropylcellulose) (HPC) 112 % of control | dose: 50.0 mg/kg/injection, schedule: Q01DX009 (ip), vehicle: Klucel (hydroxypropylcellulose) (HPC) 95 % of control | dose: 100.0 mg/kg/injection, schedule: Q01DX009 (ip), vehicle: Klucel (hydroxypropylcellulose) (HPC) 118 % of control | dose: 200.0 mg/kg/injection, schedule: Q01DX009 (ip), vehicle: Klucel (hydroxypropylcellulose) (HPC) 101 % of control

S=c1sc(-c2ccc(Cl)cc2)nn1CSc1nc2ccccc2[nH]1
inactive: [7] 100 % of control | [8] 98 % of control | dose: 240.0 mg/kg/injection, schedule: Q01DX005 (ip), vehicle: saline with Tween-80 89 % of control

c1ccc2c(c1)N=Nc1ccccc1OCCOCCOCCOCCO2
inactive: dose: 100.0 mg/kg/injection, schedule: Q04DX002 (ip), vehicle: saline with Tween-80 106 % of control | dose: 200.0 mg/kg/injection, schedule: Q04DX002 (ip), vehicle: saline with Tween-80 100 % of control | dose: 400.0 mg/kg/injection, schedule: Q04DX002 (ip), vehicle: saline with Tween-80 99 % of control

CN(C)CC(CN(C)C)C(=O)/C=C/c1ccc(Cl)cc1Cl
inactive: dose: 7.5 mg/kg/injection, schedule: Q01DX005 (ip), vehicle: saline 104 % of control | dose: 15.0 mg/kg/injection, schedule: Q01DX005 (ip), vehicle: saline 97 % of control | dose: 30.0 mg/kg/injection, schedule: Q01DX005 (ip), vehicle: saline 100 % of control

Nc1ccc2cc(S(=O)(=O)O)cc(O)c2c1N=Nc1ccc(NC(=O)c2ccc(C(=O)Nc3ccc(N=Nc4c(N)ccc5cc(S(=O)(=O)O)cc(O)c45)c(S(=O)(=O)O)c3)cc2)cc1S(=O)(=O)O
inactive: [12] 101 % of control | [13] 96 % of control | [4] 98 % of control

CN1N=C(c2ccccc2)N=P12N=C(c1ccccc1)NN2C (centres undefined)
inactive: [9] 94 % of control | [10] 102 % of control | [11] 103 % of control

CCC=Nc1c(O)cc(-c2ccccc2)n(C)c1=O
inactive: [7] 94 % of control | [8] 100 % of control

CC(=O)Nc1ccc(SSc2ccc(NC(C)=O)c3cccnc23)c2ncccc12
inactive: dose: 0.78 mg/kg/injection, schedule: Q01DX005 (ip), vehicle: saline with Tween-80 91 % of control | dose: 1.56 mg/kg/injection, schedule: Q01DX005 (ip), vehicle: saline with Tween-80 91 % of control | dose: 3.13 mg/kg/injection, schedule: Q01DX005 (ip), vehicle: saline with Tween-80 90 % of control | [12] 86 % of control | [13] 95 % of control | [4] 115 % of control

C[n+]1cc(Cl)cc(Br)c1
inactive: dose: 25.0 mg/kg/injection, schedule: Q01DX005 (ip), vehicle: saline 117 % of control
